# Measurements published in patent US20240299353A1, “COMPOSITIONS AND METHODS FOR TREATING […] 5-MEO-DMT” (Alvarius Pharmaceuticals Ltd., priority 2021, published 2024).
# Tests used:
# G9a = assay: Western blot of G9a in brain regions, chronic cocaine ± 5-MeO-DMT; type: in vivo, Male Wistar rats
# Excerpt: Male Wistar rats aged 7 weeks were acclimatized to the facility for 1 week prior to the beginning of the study. […] Animals were euthanized 23- or 119-hours following vehicle or 5-MeO-DMT administration.
# Following euthanasia brain regions of interest were isolated. Briefly, the olfactory bulbs were removed before the brain was placed in a rat brain matrix (FIG. 2A). Sterile blades were inserted at positions 2 and 3 (FIG. 2B) to extract a coronal slice containing the Bregma+˜0.2-+˜2.2 coordinates (FIG. 2C). From this tissue slice a blunted 12 G needle was used to punch dissect the NAc and dorsal striatum (DS) (FIG. 2D-2E) identified using the rat brain atlas (Panxinos and Watson 2nd edition). The PFC, hippocampus (Hip) and amygdala (Amyg) were then blunt dissected (FIG. 3A-3D). All regions were frozen in liquid nitrogen and stored at −80° C. until processed.
# These treatment groups were used for the molecular assessment of addiction-linked markers.
# Determination of protein concentration—a bicinchoninic acid assay (BCA, ThermoFisher) was conducted to determine the total protein concentration in tissue lysates following manufacturer's instructions. Briefly, bovine serum albumin (BSA) standards were prepared in a serial dilution (0-2.0 mg protein/ml) and 200 μl working reagent (50:1, reagent A: reagent B) was added to each of the standards and samples in a 96 well plate (Greiner). For tissue lysates a 1:10 dilution was performed with cell lysis buffer to ensure absorbance values lay within the working range established by the standards. All samples and standards were added in duplicate. The plate was covered and incubated for 30 mins at 37° C. before absorbance was read at 562 nm on a plate reader (SpectraMax M3). The absorbance values were used to form a standard curve of known protein concentrations and protein concentration of samples were derived using the equation of the line. All samples were standardized to the lowest protein concentration using distilled H20 (dH2O).
# SDS-PAGE and Western Blotting—Following equalisation of protein concentrations, 6× sample loading buffer (15% SDS, 15% […], 50% glycerol, 0.01% bromophenol blue, […]) was added to each sample using a dilution factor of 1:5 of the total volumes before boiling at 100° C. for 5 mins. Samples were stored at −20° C. until use. One dimensional sodium-dodecyl-sulphate polyacrylamide gel electrophoresis (SDS-PAGE) was used for protein separation based on molecular weight. The percentage of acrylamide in the resolving or stacking gel was determined by the molecular weight of the protein of interest. In this instance all gels consisted of a 5% stacking gel and a 10% resolving gel with the exception of mGluR5, G9a (8%) and H3K9Me2 (12%). 20 μg of protein was loaded and resolved using SDS-PAGE. Gel electrophoresis was conducted at 80V while the protein was in the stacking gel, once it migrated to the resolving gel the voltage was increased to 120V and ran for 90 mins. Samples were transferred to a 0.45 μm polyvinylidene difluoride (PVDF) membrane (Analab) for 1 hour at 100V and blocked in 5% milk blocking solution made in tris-buffered saline containing tween®-20 (TBS-T, Sigma) for 90 mins. Primary antibodies (FIG. 5) were diluted in 5% BSA in TBS-T and incubated with membranes overnight at 4° C. or for 2 hours at room temperature. After incubation with primary antibodies the membranes were washed in TBS-T for 4×10 minutes before incubation with 1:2000 anti-rabbit and 1:2000 anti-mouse Alexa Fluro® conjugated secondary antibodies (Invitrogen) in 2% milk for 1 hour at room temperature. Membranes were washed in TBS-T for 4×10 minutes and in TBS for 1×10-minute wash. Proteins were visualized using Odyssey® infrared imaging system. Protein expression was quantified using Image Studio Lite (Version 5.2) and expression intensities were normalized to a house keeping protein, α-Tubulin or β-actin.
# rats = assay: Acute adverse effects (serotonin-associated toxicity) in the behaviour study; type: in vivo
# Protocol: In this instance the animals were 9 weeks old at the initiation of drug exposures and we selected just the high (20 mg/kg) dose of 5-MeO-DMT from the molecular study. […] Due to the number of behavioral paradigms to be completed by each animal we divided the study into two cohorts staggered by two weeks with 8 animals coming from each cohort to make up the 16 animals for each treatment group. 23 hours after 5-MeO-DMT administration the animals were introduced to the open field arena where they were allowed to freely explore the area for 5 mins. Following the open field test (OFT) animals were returned to their home cage for 2 hours before beginning either the elevated plus maze (EPM) or pre-pulse inhibition (PPI) testing. 24 hours after completing the OFT animals were returned to the chamber for the first session in novel object (NO1) testing. The animals were returned to their home cage for 2 hours before beginning the EPM or PPI test. 24 hours after NO1 the animals returned to the open field chamber for the second session in novel object (N02) testing. After completing N02 animals were returned to their home cage for 2 hours before they underwent the forced swim test (FST) pre-test. 24 hours later the animals were returned to the FS cylinders for the FST. Upon completion of the FST all animals were euthanized. A timeline of this experimental cohort is described in FIG. 8A.
# Within 5-10 mins of administration a series of symptoms emerged that we believed were indicative of acute serotonin-associated toxicity, usually termed “serotonin syndrome” as a result of excessive serotonergic activity (Haberzettl et al. 2013). These symptoms overlap with those induced by acute psychedelic administration including head twitches, tremor, hind limb abduction, Straub tail, head shaking, head weaving and flat/low body posture however in this instance symptoms progressed rapidly to include hyperthermia, tachycardia, trembling and seizures. […] In total 7 of the 16 animals that were administered 20 mg/kg 5-MeO-DMT died or were euthanized for ethical reasons. […] As the study was divided into two cohorts we consulted with the designated vet in BMF as to what amendments should be made to our study protocol to reduce the risk of harm to animals in cohort 2 and a number of changes were implemented to the study design as outlined below.
# The experiment was conducted as described for cohort 1 for the first 13 days of injections. There are a number of notable differences in experimental procedures between the two cohorts of animals to be highlighted. […] Finally, the dose of 5-MeO-DMT was reduced to 10 mg/kg. The order and timing of all the behavioral paradigms were kept constant between the cohorts. A timeline of this experimental cohort is described in FIG. 8B. Additionally, 5-MeO-DMT administrations were staggered so animals could be observed for the duration of acute drug effects and to ensure recovery prior to the next animal being injected. The typical symptoms of psychedelic drug administration outlined above were reproduced in all animals administered 5-MeO-DMT.
smiles,measurement,setting,value
"COc1ccc2[nH]cc(CCN(C)C)c2c1 [5-MeO-DMT, 5-methoxy-N,N-dimethyltryptamine]",G9a expression,"G9a; PFC, 24 h, cocaine+20 mg/kg 5-MeO-DMT relative to saline+vehicle",significant decrease in G9a expression
same,G9a expression,"G9a; dorsal striatum, 24 h, 20 mg/kg 5-MeO-DMT alone",increased G9a expression levels
same,G9a expression,"G9a; dorsal striatum, 24 h, cocaine + either concentration of 5-MeO-DMT (10 or 20 mg/kg)",significantly reduced G9a levels relative to the cocaine+vehicle group
same,G9a expression,"G9a; dorsal striatum, 120 h, 20 mg/kg 5-MeO-DMT alone",remained significantly elevated
same,G9a expression,"G9a; hippocampus, 5-MeO-DMT alone",no change in enzyme expression
same,G9a expression,"G9a; hippocampus, 24 h, cocaine+20 mg/kg 5-MeO-DMT",normalised the cocaine-induced decrease in G9a
same,time to emergence of symptoms indicative of acute serotonin-associated toxicity,rats; cohort 1 (20 mg/kg 5-MeO-DMT),5 to 10 min
same,adverse effects after administration,"rats; cohort 1, 20 mg/kg 5-MeO-DMT, 1 h after last saline or cocaine",strong adverse effects in a significant proportion of animals
same,animals that died or were euthanized for ethical reasons,"rats; cohort 1, all animals administered 20 mg/kg 5-MeO-DMT",7 of the 16
same,animals that died or were euthanized,"rats; cohort 1, cocaine+5-MeO-DMT (20 mg/kg) group",5 animals
same,animals that died or were euthanized,"rats; cohort 1, saline+5-MeO-DMT (20 mg/kg) group",2 animals
same,animals euthanized for early signs of serotonin-associated toxicity,"rats; cohort 2, saline+5-MeO-DMT (10 mg/kg) group",2 animals
